Patent publication US7687643B2, “Process for preparing 3,3-dimethylindolines” (Amgen Inc., priority 2001, dated 2010)

What follows are compounds tested on Human Umbilical Vein Endothelial cells (VEGF-stimulated) (assay: HUVEC proliferation assay, VEGF-stimulated). Conditions: VEGF 50 ng/mL, 72 h, CyQuant, read-out: inhibited VEGF-stimulated HUVEC proliferation at a level.
Type: cell-based
Procedure, shortened: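 Pooled-donor HUVECs (passage 2–3) seeded in DMEM+10% FBS for 22 h, then pre-treated 2–3 h with five-point, five-fold compound dilutions (0.25% DMSO final). Stimulated with 50 ng/mL VEGF (bFGF 20 ng/mL on separate plates) for 72 h at 37 °C. CyQuant fluorescence (485/530 nm) after freeze-thaw; IC50 from 4-parameter fit.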
For COc1cc(CNc2ncccc2C(=O)Nc2ccc3c(c2)NCC3(C)C)ccn1 [Example 1000, N-(3,3-dimethyl-2,3-dihydro-1H-indol-6-yl)-2-[(2-methoxy-pyridin-4-ylmethyl)-amino]-nicotinamide], the IC50 was < 0.05 µM.
With CC1(C)CNCc2cc(NC(=O)c3cccnc3NCc3ccnc4[nH]ccc34)ccc21 [Example 1145, N-(4,4-Dimethyl-1,2,3,4-tetrahydro-isoquinolin-7-yl)-2-[(1H-pyrrolo[2,3-b]pyridin-4-ylmethyl)-amino]-nicotinamide] the IC50 was < 0.05 µM.
In the case of CC1(C)CCNc2cc(NC(=O)c3cccnc3NCc3ccncn3)ccc21 [Example 1110, N-(4,4-Dimethyl-1,2,3,4-tetrahydro-quinolin-7-yl)-2-[(pyrimidin-4-ylmethyl)-amino]-nicotinamide], the IC50 is reported as < 0.05 µM.
In the case of CC1(C)CNCc2cc(NC(=O)c3cccnc3NCc3ccc4ncccc4c3)ccc21 [Example 1061, N-(4,4-dimethyl-1,2,3,4-tetrahydro-7-isoquinolinyl)-2-((6-quinolinylmethyl)amino)-3-pyridinecarboxamide], the IC50 is reported as < 0.05 µM.
For CC(=O)N1CC(C)(C)Oc2ccc(NC(=O)c3cccnc3NCc3ccncc3)cc21 [Example 943, N-(4-Acetyl-2,2-dimethyl-3,4-dihydro-2H-benzo[1,4]oxazin-6-yl)-2-[(pyridin-4-ylmethyl)-amino]-nicotinamide], the IC50 was < 0.05 µM.
In the case of O=C(Nc1ccc(Cl)cc1)c1cccnc1NCc1ccnc2ccccc12 [Example 20, N-(4-Chlorophenyl){2-[(4-quinolylmethyl)amino](3-pyridyl)}carboxamide], the IC50 is reported as < 0.05 µM.
For COc1cc(CNc2ncccc2C(=O)Nc2ccc3c(c2)CNCC32CC2)ccn1 [Example 1128, N-(4-Spiro-1′-cyclopropane-1,2,3,4-tetrahydroisoquinolin-7-yl)-2-[(2-methoxy-pyridin-4-ylmethyl)-amino]-nicotinamide], the IC50 was < 0.05 µM.
For CS(=O)(=O)NCCOc1cc(NC(=O)c2cccnc2NCc2ccncc2)cc(C(F)(F)F)c1 [Example 1090, N-(3-((2-((methylsulfonyl)amino)ethyl)oxy)-5-(trifluoromethyl)phenyl)-2-((4-pyridinylmethyl)amino)-3-pyridinecarboxamide], the IC50 was < 0.05 µM.
With O=C(Nc1cc(CCCN2CCCCC2)cc(C(F)(F)F)c1)c1cccnc1NCc1ccncc1 [Example 963, N-[3-(3-Piperidin-1-yl-propyl)-5-trifluoromethyl-phenyl]-2-[(pyridin-4-ylmethyl)-amino]-nicotinamide] the IC50 was < 0.05 µM.
With CC(C)(C)c1ccc(NC(=O)c2cccnc2NCc2ccnc(OCCCN3CCOCC3)c2)cc1 [Example 904, N-(4-tert-Butyl-phenyl)-2-{[2-(3-morpholin-4-yl-propoxy)-pyridin-4-ylmethyl]-amino}-nicotinamide] the IC50 was < 0.05 µM.
CNc1nccc(CNc2ncccc2C(=O)Nc2ccc3c(c2)CNCC3(C)C)n1 [Example 1038, N-(4,4-Dimethyl-1,2,3,4-tetrahydro-7-isoquinolinyl)-2-(((2-(methylamino)-4-pyrimidinyl)methyl)amino)-3-pyridinecarboxamide] was tested, and the IC50 was < 0.05 µM.
For CC1(C)CNCc2cc(NC(=O)c3cccnc3NCc3ccnc4ccccc34)ccc21 [Example 1192, N-(4,4-Dimethyl-1,2,3,4-tetrahydro-isoquinolin-7-yl)-2-[(quinolin-4-ylmethyl)-amino]-nicotinamide], the IC50 was < 0.05 µM.
For CC1(C)CNCc2cc(NC(=O)c3cccnc3NCc3ccnc(N)c3)ccc21 [Example 1168, 2-(((2-Amino-4-pyridinyl)methyl)amino)-N-(4,4-dimethyl-1,2,3,4-tetrahydro-7-isoquinolinyl)-3-pyridinecarboxamide], the IC50 was < 0.05 µM.
In the case of COc1nccc(CNc2ncccc2C(=O)Nc2ccc3c(c2)N(C(C)=O)CC3(C)C)n1 [Example 1046, N-(1-acetyl-3,3-dimethyl-2,3-dihydro-1H-indol-6-yl)-2-(((2-(methyloxy)-4-pyrimidinyl)methyl)amino)-3-pyridinecarboxamide], the IC50 is reported as < 0.05 µM.
For CN(C)CC(=O)Nc1cc(NC(=O)c2cccnc2NCc2ccnc3ccccc23)ccc1C(C)(C)C [Example 1072, N-(4-(1,1-dimethylethyl)-3-((N,N-dimethylglycyl)amino)phenyl)-2-((4-quinolinylmethyl)amino)-3-pyridinecarboxamide], the IC50 was < 0.05 µM.
CNc1nccc(CNc2ncccc2C(=O)Nc2ccc3c(c2)NC(=O)C3(C(F)(F)F)C(F)(F)F)n1 [Example 1036, 2-(((2-(Methylamino)-4-pyrimidinyl)methyl)amino)-N-(2-oxo-3,3-bis(trifluoromethyl)-2,3-dihydro-1H-indol-6-yl)-3-pyridinecarboxamide] was tested, and the IC50 was < 0.05 µM.
For O=C(Nc1ccc(Cl)cc1)c1ncccc1NCc1ccc2ncccc2c1 [Example 7, N-(4-Chlorophenyl){3-[(6-quinolylmethyl)amino](2-pyridyl)}carboxamide], the IC50 was < 0.05 µM.
For COc1nccc(CNc2ncccc2C(=O)Nc2ccc(C(C)(C)C)c(NC(=O)CN(C)C)c2)n1 [Example 1074, N-(4-(1,1-dimethylethyl)-3-((N,N-dimethylglycyl)amino)phenyl)-2-(((2-(methyloxy)-4-pyrimidinyl)methyl)amino)-3-pyridinecarboxamide], the IC50 was < 0.05 µM.
In the case of CC1(C)CCNc2cc(NC(=O)c3cccnc3NCc3ccnc(N)c3)ccc21 [Example 1111, 2-[(2-Amino-pyridin-4-ylmethyl)-amino]-N-(4,4-dimethyl-1,2,3,4-tetrahydro-quinolin-7-yl)-nicotinamide], the IC50 is reported as < 0.05 µM.
With CC1(C)CNCc2cc(NC(=O)c3cccnc3NCc3ccnc4c3CCN4)ccc21 [Example 1147, 2-[(2,3-Dihydro-1H-pyrrolo[2,3-b]pyridin-4-ylmethyl)-amino]-N-(4,4-dimethyl-1,2,3,4-tetrahydro-isoquinolin-7-yl)-nicotinamide] the IC50 was < 0.05 µM.
CC1(C)CCNc2cc(NC(=O)c3cccnc3NCc3ccncc3)ccc21 [Example 1109, N-(4,4-Dimethyl-1,2,3,4-tetrahydro-quinolin-7-yl)-2-[(pyridin-4-ylmethyl)-amino]-nicotinamide] was tested, and the IC50 was < 0.05 µM.
With CC(C)c1ccc(NC(=O)c2ccc(F)nc2NCc2ccncc2)cc1 [Example 155, {6-Fluoro-2-[(4-pyridylmethyl)amino](3-pyridyl)}-N-[4-(isopropyl)phenyl]carboxamide] the IC50 was < 0.05 µM.
With O=C(Nc1ccc(C(F)(F)C(F)(F)F)c(OC[C@H](O)CN2CCCC2)c1)c1cccnc1NCc1ccncc1 [Example 951, (R) N-[3-(2-Hydroxy-3-pyrrolidin-1-yl-propoxy)-4-pentafluoroethyl-phenyl]-2-[(pyridin-4-ylmethyl)-amino]-nicotinamide] the IC50 was < 0.05 µM.
CN(C)CCOCCOc1cc(CNc2ncccc2C(=O)Nc2ccc(C(C)(C)C)cc2)ccn1 [Example 151, (2-{[(2-{2-[2-(Dimethylamino)ethoxy]ethoxy}(4-pyridyl))methyl]amino}(3-pyridyl))-N-[4-(tert-butyl)phenyl]carboxamide] was tested, and the IC50 was < 0.05 µM.
In the case of O=C(Nc1cccc(C(F)(F)F)c1)c1cccnc1NCc1ccncc1 [Example 82, 2-[(Pyridin-4-ylmethyl)-amino]-N-(3-trifluoromethyl-phenyl)-nicotinamide], the IC50 is reported as < 0.05 µM.
In the case of O=C(Nc1ccc(Oc2ccccc2)cc1)c1cccnc1NCc1ccncc1 [Example 158, N-(4-Phenoxyphenyl){2-[(4-pyridylmethyl)amino](3-pyridyl)}carboxamide], the IC50 is reported as < 0.05 µM.
